Source: patent publication US20210267193A1, “Pest Repellent Agent” (Kao Corporation, priority 2018, published 2021)

Experiments:
[1] = Measurement of surface tension (Wilhelmy method, Tensiometer K100); type: physicochemical; settings: static surface tension, platinum plate
Experimental: (1) Measurement of Surface Tension
An automatic surface tensiometer: Tensiometer K100 (manufactured by KRUSS GmbH) was used to measure the static surface tension by the Wilhelmy method using a platinum plate in an environment at 25° C.

Aedes albopictus [2] = test: Mosquito landing rate using human forearm; type: in vivo; settings: 4 cm x 5 cm test site, 5 mg (0.25 mg/cm^2), about 50 mosquitoes, 28° C., 70% RH
Experimental: (4) Evaluation of Mosquito Landing Rate Using Human Forearm
The repellent effect of the pest repellent on human forearm was evaluated in terms of a mosquito landing rate.
(4-1) Preparation of Aedes albopictus
Female adults of Aedes albopictus were purchased from Mostop Inc. The adults were bred in a room at 28° C. and a relative humidity of 70% RH with a 12-hour light/dark cycle after delivery and appropriately used for tests. During breeding of mosquitoes, a 3% by mass sucrose aqueous solution was given as a feed. In order to facilitate the induction to the forearm, before the test, the food was changed to water, and the mosquitoes were fasted for 12 hours or more.
(4-2) Calculation of Landing Rate
The forearm was washed with a body wash (Biore u, manufactured by Kao Corporation), and water droplets were wiped off with a paper towel, followed by performing acclimatization for 10 minutes at room temperature. Thereafter, a rubber glove (Singer Latex Long Glove M, manufactured by Utsunomiya Seisakusho Co., Ltd.) covering up to the elbow was put on the arm to be measured. The mosquito cannot bite through the rubber glove.
The rubber glove was cut off with scissors to expose a test site of 4 cm×5 cm toward the inside of the forearm. The area around the opening of the rubber glove is reinforced with a pressure-sensitive adhesive tape. Then, the resultant was moved to a constant temperature and constant humidity room (28° C., relative humidity: 70%), followed by performing acclimatization for 3 minutes. 5 mg (0.25 mg/cm^2) of the repellent was applied on the test site with a finger wearing the rubber glove, and immediately thereafter, the arm was inserted into a test box (Bug Dorm-1, manufactured by MegaView Science Co., Ltd., 30 cm×30 cm×30 cm). Approximately 50 test mosquitoes are released in this test box. The mosquito stays on the skin and then begins to bite by placing a needle on the skin. In order to prevent blood sucking into the forearm, mosquitoes are removed by using an inset suction pipe passed through a hole into which the arm is inserted just before starting biting. The measurement was terminated at the time when the total number of mosquitoes that succeeded in landing (reached just before the start of biting) and mosquitoes that touched the skin but escaped without landing reached 15. […] The mosquito landing rate was calculated by the following equation. […]
Each of the liquid oily components shown in Table 4 was applied onto the test site of the human forearm at a coverage of 0.25 mg/cm^2, and the mosquito landing rate on the applied surface of the forearm was calculated.

Aedes albopictus [3] = test: Mosquito landing rate on replica skin substrate applied with repellent; type: in vivo; settings: for Landing rate (at 0.25 mg/cm^2): coverage 0.25 mg/cm^2 on polyurethane replica skin substrate
Experimental: (3) Mosquito Landing Rate
The repellent effect of the pest repellent was evaluated in terms of a mosquito landing rate.
(3-1) Preparation of Aedes albopictus
Female adults of Aedes albopictus were purchased from Mostop Inc. The adults were bred in a room at 28° C. and a relative humidity of 70% RH with a 12-hour light/dark cycle after delivery and appropriately used for tests. During breeding of mosquitoes, a 3% by mass sucrose aqueous solution was given as a feed.
(3-3) Calculation of Mosquito Landing Rate
The mosquito landing rate was determined by applying a repellent onto the aforementioned replica skin substrate in the manner as mentioned below to form a substrate surface, counting the number of mosquitoes landed on the substrate surface, and calculating the mosquito landing rate on the applied surface. This replica skin substrate is a disk having a diameter of 5 cm. Here, the term “landed” means that the mosquito stayed on the replica skin substrate for at least one second.
Four replica skin substrates were prepared, two of which were uniformly applied with a repellent with a fingertip wearing a rubber glove, and the other two were not applied with the repellent. Thereafter, the four substrates were vertically mounted in a glass box having a length, a width, and a height of about 6 cm on each side, such that the applied surface was located inside the boxy. This box has a circular hole with a diameter of 4 cm in the vertical and horizontal directions when viewed from the top, and by setting the aforementioned substrate, a part of the inner wall surface of the box can be made as the substrate surface. Two adjacent surfaces among the four surfaces of the inner wall of the box were set as substrates onto which the repellent was applied.
Four mosquitoes were enclosed in the glass-made box, and a shock was applied to force the mosquitoes to fly, thereby recording on what surface they first landed within 10 seconds. This was repeated 20 times, and the mosquito landing rate on the applied surface was calculated by the following equation.
Mosquito landing rate on applied surface (%)={(Number of mosquitoes landed on two surfaces of replica skin substrates applied with repellent)/(Number of mosquitoes landed on any of four surfaces of replica skin substrates)}×100
In the case of repeating the aforementioned test, fresh unused mosquitoes were used for every test, and the landing rate was calculated as an average.
It is expressed that as the landing rate is lower, the staying of mosquitoes can be suppressed, and the repellent effect is excellent.
In Comparative Example 2, a frosted glass-made substrate (Tempax #240, manufactured by Cosmode Co., Ltd.) was used in place of the replica skin substrate.
The liquid oily component shown in Table 1 was prepared, and the liquid oily component shown in Table 2 was uniformly applied onto the aforementioned replica skin substrate at a coverage of 0.5 mg/cm^2, and the mosquito landing rate was calculated.
In Example 1, each of the liquid oily components shown in Table 3 was uniformly applied onto the replica shin substrate at a coverage of 0.25 mg/cm^2, and the mosquito landing rate was calculated.

[4] = Measurement of viscosity (B-type rotational viscometer); type: physicochemical; settings: rotor M2 (12 or 6 rpm) or L adapter (30 rpm) as listed per sample
Experimental: (2) Measurement of Viscosity
Viscometer TVB-10, manufactured by […] Co., Ltd. was used as a B-type rotational viscometer according to JIS K7117-1:1999. As to components to be measured, a viscosity value greatly differs for every sample, and therefore, it is difficult to accurately measure all components under a single measurement condition. Then, the measurement was performed using two types of rotors. The viscosity was first measured at a rotational speed of 12 rpm using a rotor M2 in an environment at 23° C. At this time, the component having a viscosity of 2,500 mPa·s or more was again measured at a rotational speed of 6 rpm, to obtain the viscosity value.
On the other hand, the component having a viscosity of 20 mPa·s or less was again measured at a rotational speed of 30 rpm using an L adapter that is a rotor for low viscosity in an environment of 23° C., to obtain the viscosity value.

pests = settings: content in the pest repellent composition; existing pest repellents; cited from earlier work
[5] = coverage 0.5 mg/cm^2 on polyurethane replica skin substrate, stay of at least 1 second counts as landed, lower = better repellent effect
[6] = lower = better repellent effect

Row | Compound | Surface tension (at 25° C.) [1] [mN/m] | Landing rate on exposed area (at 0.25 mg/cm^2) (Aedes albopictus [2]) [%] | Landing rate (at 0.5 mg/cm^2) (Aedes albopictus [3]; [5]) [%] | Viscosity (at 23° C.) [4] [mPa · s] | Landing rate (at 0.25 mg/cm^2) (Aedes albopictus [3]; [6]) [%] | effective amount (pests) [% by mass] | Landing rate (at 0.5 mg/cm^2) (Aedes albopictus [3]; coverage 0.5 mg/cm^2 on frosted glass-made substrate (Tempax #240) in place of replica skin substrate) [%]
1 | CC(C)=CCC/C(C)=C/CC/C(C)=C/CC/C=C(\C)CC/C=C(\C)CCC=C(C)C [Hydrocarbon oil d3, Squalene] | 30 | 12 | 21 | 42 | – | – | –
2 | CCCCCCCCCCC(CO)CCCCCCCC (centres unmarked) [Higher alcohol e1, 2-Octyl dodecanol] | 29 | – | – | 74 | 16 | – | –
3 | CCN(CC)C(=O)c1cccc(C)c1 [DEET, N,N-diethyl-m-toluamide] | – | – | – | – | – | ≥ 4 | –
4 | CCCCCCCCCC(=O)OCC(C)(C)COC(=O)CCCCCCCCC [Ester oil b6, Neopentyl glycol dicaprate] | 28 | – | 20 | 15 | – | – | –
5 | CCCCCCCCCCCCCC(=O)OC(C)C [Ester oil b5, Isopropyl myristate] | 28 | 24 | 11 | 5 | 11 | – | –
6 | CCC(C)OC(=O)N1CCCCC1CCO (centres unmarked) [Icaridin] | – | – | – | – | – | ≥ 5 | –
7 | CCCCCCCCCCCCCCCCOC(C)CC(C)C (centres unmarked) [Ether oil c1, Cetyl-1,3-dimethylbutyl ether] | 28 | 15 | 13 | 7 | – | – | –
8 | CC(C)CCCCCCCCCCOC(=O)CCCCCC(C)C [Ester oil b2, Isotridecyl isononanoate] | 28 | – | 15 | 11 | – | – | –
9 | OCCCO [Polyhydric alcohol fx1, 1,3-Propanediol, reference compound] | 48 | – | – | 53 | – | – | 39
10 | CC(C)CCCCCCOC(=O)CCCCCC(C)C [Ester oil b1, Isononyl isononanoate] | 25 | – | 22 | 6 | – | – | –
11 | OCC(O)CO [Polyhydric alcohol fx2, Glycerin, reference compound] | 65 | 75 | – | – | – | – | –
12 | CC(C)=CCCC(C)CCO (centres unmarked) [citronellol] | – | – | – | – | – | ≥ 10 | –
13 | CCCCC(CC)C(=O)OCC(C)(C)COC(=O)C(CC)CCCC (centres unmarked) [Ester oil b3, Neopentyl glycol di-2-ethylhexanoate] | 28 | – | 12 | – | – | – | –
14 | Polyglyceryl diisostearate [Ester oil bx1] | 27 | – | 21 | 1000 | – | – | –
15 | CCCCCCCCCCCCCCCC(=O)OC(C)C [Ester oil b4, Isopropyl palmitate] | 27 | – | 19 | 7 | – | – | –
